Measurements: patent publication US7972793B2, “Methods and compositions for the treatment of psychotic disorders through the identification of the SULT4A1-1 haplotype” (Suregene, LLC, priority 2009, dated 2011)
Where two headings read alike, the source gives them in different places. Marks after values point to notes of the source that are not given here.

Tests used:
[1] = tested on: CATIE Caucasian schizophrenia patients; assay: CATIE Phase 1 drug response: change in total PANSS (LOCF), drug switchers, segmented by SULT4A1-1 status; format: in vivo, human; conditions: for ≦−20% (number of individuals with this percent change in total PANSS; responders) / ≧−20% (number of individuals with this percent change in total PANSS; non-responders): LOCF; for Non Responder (number) / Responder (number): Table 16, 20% decrease in PANSS threshold
Text: There are several different metrics for quantifying response in clinical trials of antipsychotic medications. The most commonly used psychometric instrument is the Positive and Negative Syndrome Scale (PANSS), a 30-item semi-quantitative instrument scored by clinical professionals (Kay et al., 1987). The greater the decrease in PANSS score, the better the clinical response. The most direct measure of clinical response is absolute change in PANSS score. In addition to absolute change, the improvement is often reported as a percentage change from baseline PANSS score.
A decrease of at least 20% in total PANSS is one commonly used threshold for response (Leucht et al., 2009).
The design of the CATIE study has been described in detail by others (Lieberman et al., 2005; Stroup et al., 2003). […] A total of 738 subjects consented to provide DNA for genetic study. […] Retrospective genetic analyses, judged to be exempt from human studies requirements by an IRB, were conducted in the current study.
All tested patients were studied using well established clinical endpoints comparing baseline, intermediate, and last observation carried forward (LOCF) for the PANSS scores using CATIE data. LOCF analysis is a commonly used clinical endpoint for clinical trials for neuropsychiatric drugs, with changes in PANSS scores of between negative 20% and negative 30% used as typical endpoints to indicate clinically significant response (Leucht et al., 2009). To remove time on drug as a variable for the CATIE trial, analysis was limited to only those patients who were randomized to a different drug following the initial washout period (drug switchers).
As mentioned previously, the mean change in absolute or percent PANSS provides an important measure of efficacy in patients undergoing antipsychotic treatments. Indeed, many pivotal trials in the psychosis field used absolute and/or percentage change in PANSS Score as the primary endpoint (Leucht et al., 2009). […] Therefore, in addition to examining a categorical definition of clinically significant response, the inventors determined the impact of segmentation by SULT4A1-1 status on the quantitative measure of clinical improvement—delta PANSS.

[2] = tested on: CATIE African American schizophrenia patients; assay: CATIE drug response: change in total PANSS (LOCF), segmented by SULT4A1-1 status, African Americans; format: in vivo, human
Protocol: The design of the CATIE study has been described in detail by others (Lieberman et al., 2005; Stroup et al., 2003). […] A total of 738 subjects consented to provide DNA for genetic study. […] Retrospective genetic analyses, judged to be exempt from human studies requirements by an IRB, were conducted in the current study. All tested patients were studied using well established clinical endpoints comparing baseline, intermediate, and last observation carried forward (LOCF) for the PANSS scores using CATIE data. […] To remove time on drug as a variable for the CATIE trial, analysis was limited to only those patients who were randomized to a different drug following the initial washout period (drug switchers).

[3] = tested on: CATIE Caucasian schizophrenia patients; assay: Time to discontinuation for all causes in the CATIE study; format: in vivo, human
Text: The primary endpoint for the CATIE study was time to discontinuation for all causes (Lieberman et al., 2005). Thus the inventors evaluated the effect of SULT41-1 status on this important parameter.

[4] = tested on: CATIE schizophrenia patients; assay: Length of successful treatment by the CGI scale (TMSUCC1) in CATIE; format: in vivo, human
Text: The CATIE clinical data set included the Clinical Global Impression (CGI) Scale, an observer-provided assessment of the psychiatric health of the patient (Stroup et al., 2003; Guy 1976). Patients are rated with the CGI Scale from 1 to 7, with higher scores indicating greater severity of illness. The CATIE study provided a response variable that measured the time (in months) of successful treatment as measured by the CGI scale (“TMSUCC1” in the CATIE data).
The CATIE clinical data set included Clinical Global Impression (CGI) Scale, an observer-provided assessment of the psychiatric health of the patient (Stroup et al., 2003; Guy 1976). Patients are rated with the CGI Scale from 1 to 7, with higher scores indicating greater severity of illness. The CATIE study provided a response variable that measured the time (in months) of successful treatment as measured by the CGI scale (“TMSUCC1” in the CATIE data).

CATIE Caucasian subjects = assay: Rate of hospitalization due to exacerbation of psychosis in CATIE by SULT4A1-1 status; format: in vivo, human
Text: For this analysis, the inventors assigned a dichotomous value (positive or negative) for hospitalization status to subjects in each phase of the trial based on only the first hospitalization event for a given patient in that phase.

[5] = tested on: CATIE Phase I non-responders; conditions: CATIE Phase II, LOCF; for Responders (number): decrease PANSS ≧ 20%
[6] = SULT4A1-1 Negative, CATIE Caucasians
[7] = SULT4A1-1 Positive, CATIE Caucasians
[8] = SULT4A1-1 negative group (sign not given)
[9] = SULT4A1-1 positive group (sign not given)
[10] = olanzapine SULT4A1-1 + vs olanzapine SULT4A1-1 −, CATIE
[11] = olanzapine SULT4A1-1 + vs perphenazine SULT4A1-1 +, CATIE
[12] = olanzapine SULT4A1-1 + vs quetiapine SULT4A1-1 +, CATIE
[13] = olanzapine SULT4A1-1 + vs risperidone SULT4A1-1 +, CATIE
[14] = olanzapine SULT4A1-1 + vs unsegmented (all drugs), CATIE
[15] = olanzapine SULT4A1-1 + vs unsegmented SULT4A1-1 +, CATIE
[16] = olanzapine SULT4A1-1 + vs unsegmented olanzapine, CATIE
[17] = olanzapine SULT4A1-1 + vs ziprasidone SULT4A1-1 +, CATIE
[18] = SULT4A1-1 Positive, CATIE Phases 1, 2 and/or 3
[19] = SULT4A1-1 negative, CATIE Phases 1, 2 and/or 3
[20] = Unsegmented, CATIE Phases 1, 2 and/or 3

With `Cc1cc2c(s1)Nc1ccccc1N=C2N1CCN(C)CC1` [Olanzapine] the “DELTA PANSS % (mean change in PANSS score from baseline to LOCF)” value [1, 6] was −3*** %, the “≦−20% (number of individuals with this percent change in total PANSS; responders)” value [1, 6] was 10 and the “≧−20% (number of individuals with this percent change in total PANSS; non-responders)” value [1, 6] was 33. The “DELTA PANSS % (mean change in PANSS score from baseline to LOCF)” value ([1]; SULT4A1-1 Negative, CATIE Caucasians, listed as olanzapine) was −3%, the “DELTA PANSS % (mean change in PANSS score from baseline to LOCF)” value [1, 7] was −24% and the “≦−20% (number of individuals with this percent change in total PANSS; responders)” value [1, 7] was 10. The “≧−20% (number of individuals with this percent change in total PANSS; non-responders)” value [1, 7] was 5, the “Non Responder (number)” value [1, 8] was 33 and the “Responder (number)” value [1, 8] was 10. For the same compound, the “Non Responder (number)” value [1, 9] was 5, the “Responder (number)” value [1, 9] was 10 and the Effect size ([1]; olanzapine SULT4A1-1 + vs SULT4A1-1 + except olanzapine, CATIE) was 0.68. The Effect size [1, 10] was 0.93, the “Mean difference (95% CI) in delta PANSS” value [1, 10] was −20.9 (−33.4 to −8.4) and the Effect size [1, 11] was 0.68. The “Mean difference (95% CI) in delta PANSS” value [1, 11] was −14.2 (−29.8 to 1.4), the Effect size [1, 12] was 0.75 and the “Mean difference (95% CI) in delta PANSS” value [1, 12] was −14.9 (−28.3 to −1.5). For the same compound, the Effect size [1, 13] was 0.93, the “Mean difference (95% CI) in delta PANSS” value [1, 13] was −20.9 (−33.2 to −6.0) and the Effect size [1, 14] was 0.83. For the same compound, the “Mean difference (95% CI) in delta PANSS” value [1, 14] was −19.6 (−31.7 to −7.5), the Effect size [1, 15] was 0.60 and the “Mean difference (95% CI) in delta PANSS” value [1, 15] was −13.0 (−24.7 to −1.2). For the same compound, the Effect size [1, 16] was 0.69, the “Mean difference (95% CI) in delta PANSS” value [1, 16] was −15.5 (−27.8 to −3.2) and the Effect size [1, 17] was 0.77. For the same compound, the “Mean difference (95% CI) in delta PANSS” value [1, 17] was −16.1 (−32.7 to 0.5), the Effect size ([1]; olanzapine-treated SULT4A1-1 positive patients compared to various other SULT4A1-1-drug combinations, CATIE) was −0.91 to −0.47 and the “delta PANSS” value ([1]; overall (not segmented by SULT4A1-1 status), CATIE) was −9. For the same compound, the “Responders (number, out of 58)” value ([1]; patients unselected for SULT4A1-1 status, 20% PANSS threshold, CATIE Caucasians) was 20, the “≦−20% (number of individuals; responders)” value ([2]; SULT4A1-1 Negative) was 15 and the “≧−20% (number of individuals; non-responders)” value ([2]; SULT4A1-1 Negative) was 30. For the same compound, the “≦−20% (number of individuals; responders)” value ([2]; SULT4A1-1 Positive) was 1, the “≧−20% (number of individuals; non-responders)” value ([2]; SULT4A1-1 Positive) was 3 and the Responders ([2]; SULT4A1-1 Positive, change in total PANSS ≦−20%) was 25%. The “Time to discontinuation, mean time in months” value ([3]; SULT4A1-1 Negative) was 10.0** Months, the “Length of Successful Treatment (CGI Months), Mean” value ([4]; SULT4A1-1 Positive) was 8.33^d Months and the “Length of Successful Treatment (CGI Months), Mean” value ([4]; Unsegmented) was 6.10 Months. For the same compound, the “HOSP (number of subjects hospitalized)” value (CATIE Caucasian subjects; [18]) was 1, the “HOSP (rate of hospitalization)” value (CATIE Caucasian subjects; [18]) was “(2.6%)” and the “HOSP (rate of hospitalization)” value (CATIE Caucasian subjects; SULT4A1-1 Positive, CATIE Phases 1, 2 and/or 3, listed as olanzapine) was 2.6%. For the same compound, the “HOSP (number of subjects hospitalized)” value (CATIE Caucasian subjects; [19]) was 22, the “HOSP (number of subjects hospitalized)” value (CATIE Caucasian subjects; [20]) was 23 and the “HOSP (rate of hospitalization)” value (CATIE Caucasian subjects; [20]) was “(14.2%)”. The “Nonresponders (number)” value ([5]; SULT4A1-1 Negative) was 14, the “Responders (number)” value ([5]; SULT4A1-1 Negative) was 3 and the “Nonresponders (number)” value ([5]; SULT4A1-1 Positive) was 4. For the same compound, the “Responders (number)” value ([5]; SULT4A1-1 Positive) was 3.
For `OCCN1CCN(CCCN2c3ccccc3Sc3ccc(Cl)cc32)CC1` [Perphenazine], the “≦−20% (number of individuals with this percent change in total PANSS; responders)” value [1, 6] was 16, the “≧−20% (number of individuals with this percent change in total PANSS; non-responders)” value [1, 6] was 47 and the “≦−20% (number of individuals with this percent change in total PANSS; responders)” value [1, 7] was 5. For the same compound, the “≧−20% (number of individuals with this percent change in total PANSS; non-responders)” value [1, 7] was 9, the “Non Responder (number)” value [1, 9] was 9 and the “Responder (number)” value [1, 9] was 5. For the same compound, the “≦−20% (number of individuals; responders)” value ([2]; SULT4A1-1 Negative) was 10, the “≧−20% (number of individuals; non-responders)” value ([2]; SULT4A1-1 Negative) was 27 and the “≦−20% (number of individuals; responders)” value ([2]; SULT4A1-1 Positive) was 0. The “≧−20% (number of individuals; non-responders)” value ([2]; SULT4A1-1 Positive) was 2, the “Time to discontinuation, mean time in months” value ([3]; SULT4A1-1 Positive) was 7.6** Months and the “HOSP (number of subjects hospitalized)” value (CATIE Caucasian subjects; [18]) was 1. For the same compound, the “HOSP (number of subjects hospitalized)” value (CATIE Caucasian subjects; [19]) was 9 and the “HOSP (number of subjects hospitalized)” value (CATIE Caucasian subjects; [20]) was 10.
